Test results published in patent US20060106064A1, “Butyrophenones and sigma-1 receptor antagonists protect against oxidative-stress” (University of North Texas Health Science Center at Fort …, priority 2004, published 2006).
“Also recorded” adds a separate entry of the source. Read-outs that look alike come from different tables or passages of the source.

Key:
HT-22 cells = assay: in vitro protection assay, glutamate-induced oxidative stress HT-22 cell model (Calcein AM cell survival)
human Sigma-1 receptor = target: T1, human Sigma-1 receptor (Homo sapiens, UniProt Q99720); assay: [3H]-(+)-pentazocine binding to MCF-7 cells stably expressing the cloned human Sigma-1 receptor; conditions: for affinity for the Sigma-1 receptor in words: FIG. 6
T1 construct: expressed in transfected cells

[1] = system: stroke (ICD-9 433, 434, 435)
NMDA receptors = conditions: cited from earlier work
[2] = system: ferric chloride-induced lipid peroxidation in rat brain membranes; assay: ferric chloride-induced lipid peroxidation in rat brain membranes (antioxidant activity); assay type: biochemical; conditions: even very high concentrations
Description: […]. Antioxidant activity was measured by the ability of compounds to prevent ferric chloride-induced lipid peroxidation in rat brain membranes. The antioxidant ZYC5 is a known antioxidant control. […]. In summary, in vitro protection against glutamate-induced oxidative stress in HT-22 cells is mediated by antagonism of Sigma-1 receptors.

[3] = system: tMCAO induced brain injury; assay: transient middle cerebral artery occlusion (tMCAO) ischemic stroke model, infarct volume by triphenyltetrazolium staining; assay type: in vivo, rat; conditions: 0.05 mg/kg acute, immediately after induction of 60 minute occlusion, ovariectomized female Sprague-Dawley rats, assessed 24 hrs after the stroke
[4] = Mus musculus, HT-22, read-out: Potency (EC50 ± SEM, nM)
[5] = protection against oxidative stress induced by 20 mM glutamate, Table 1
[6] = Table 2, receptor target screen
[7] = read-out: Potency (EC50 ± SEM), Table 2, receptor target screen
[8] = Table 4, read-out: Affinity for the cloned Sigma-1 receptor (Ki ± SEM)
[9] = patients with CABG in 1997, N = 11,444
[10] = read-out: Potency (EC50 ± SEM nM), Table 4
[11] = read-out: Potency (EC50 ± SEM), Table 5

T1 sequence (Q99720 whole entry): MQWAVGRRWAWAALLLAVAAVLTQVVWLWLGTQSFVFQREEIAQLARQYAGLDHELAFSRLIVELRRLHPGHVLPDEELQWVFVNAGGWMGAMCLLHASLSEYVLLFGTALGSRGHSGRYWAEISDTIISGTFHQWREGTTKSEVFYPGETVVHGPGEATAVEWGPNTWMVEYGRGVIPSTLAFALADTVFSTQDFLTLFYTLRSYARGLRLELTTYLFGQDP

Row | SMILES | EC50 (HT-22 cells; [4]) [nM] | Efficacy ± SEM (HT-22 cells; [5]) | in vitro protection in words (HT-22 cells; FIGS. 2, 3 and 6) | Efficacy ± SEM (HT-22 cells; [6]) | Efficacy ± SEM (HT-22 cells; Table 4) | further results
1 | O=C(CCCN1CCC(O)(c2cccc(C(F)(F)F)c2)CC1)c1ccc(F)cc1 [Trifluperidol, 1-(4-fluorophenyl)-4-[4-hydroxy-4-[3-(trifluoromethyl)phenyl]-1-piperidyl]-butan-1-one] | 7.5 ± 6.3 | – | – | – | – | Efficacy ± SEM (HT-22 cells): 55 ± 3.0; in vitro protection in words (HT-22 cells): high potency protection; affinity for the Sigma-1 receptor in words (human Sigma-1 receptor): high affinity
2 | OCCN1CCN(CCCN2c3ccccc3Sc3ccc(C(F)(F)F)cc32)CC1 [Flupenazine] | – | 0 | – | – | – | EC50 (HT-22 cells; read-out: Potency (EC50 ± SEM), protection against oxidative stress induced by 20 mM glutamate, Table 1): > 1000 nM
3 | CN(C)CCCN1c2ccccc2Sc2ccc(Cl)cc21 [Chlorpromazine] | > 1000 | 0 | – | – | – | –
4 | CCN1CCC[C@H]1CNC(=O)c1c(O)c(Cl)cc(Cl)c1OC [S-(−)-Raclopride] | > 1000 | 0 | no neuroprotection | 0 | – | EC50 (HT-22 cells; [7]): > 1000 nM
5 | CN1CCN(C2=Nc3cc(Cl)ccc3Nc3ccccc32)CC1 [Clozapine] | – | 0 | – | – | – | –
6 | Cc1cccc(C(=O)NCN2CCN(c3ccccc3C#N)CC2)c1 [PD168077] | – | – | – | 0 | – | EC50 (HT-22 cells; [7]): > 1000 nM
7 | OC1(c2ccc(Cl)cc2)CCN(Cc2c[nH]c3ccccc23)CC1 [L741626] | – | – | – | 0 | – | EC50 (HT-22 cells; [7]): > 1000 nM
8 | O=C(CCCN1CCC(O)(c2ccc(Cl)cc2)CC1)c1ccc(Cl)cc1 [Chlorohaloperidol, 1-(4-chlorophenyl)-4-[4-(4-chlorophenyl)-4-hydroxy-1-piperidyl]-butan-1-one] | 4.3 ± 1.7 | – | high potency protection | – | 64 ± 3.4 | Ki (human Sigma-1 receptor): 0.0015 ± 0.00036 µM; affinity for the Sigma-1 receptor in words (human Sigma-1 receptor): high affinity
9 | O=C(CCCN1CCC(n2c(=O)[nH]c3ccccc32)CC1)c1ccc(F)cc1 [Benperidol, 1-[1-[4-(4-fluorophenyl)-4-oxo-butyl]-4-piperidyl]-3H-benzoimidazol-2-one] | 1160 ± 498 | – | do not provide potent protection | – | 66 ± 23 | Ki (human Sigma-1 receptor): 0.252 ± 0.042 µM; affinity for the Sigma-1 receptor in words (human Sigma-1 receptor): nor do they have high affinity
10 | O=C(c1ccc(F)cc1)C1CCN(CCn2c(=O)[nH]c3ccccc3c2=O)CC1 [Ketanserin] | > 1000 | – | – | 0 | – | –
11 | O=C(CCCN1CCC2(CC1)C(=O)NCN2c1ccccc1)c1ccc(F)cc1 [Spiperone, 8-[4-(4-fluorophenyl)-4-oxo-butyl]-1-phenyl-1,3,8-triazaspiro[4.5]decan-4-one] | – | – | do not provide potent protection | – | 100 | affinity for the Sigma-1 receptor in words (human Sigma-1 receptor): nor do they have high affinity; Ki (human Sigma-1 receptor; [8]): 1.05 ± 0.334 µM
12 | CC(=O)CC(c1ccccc1)c1c(O)c2ccccc2oc1=O (centres unmarked) [Coumadin] | – | – | – | – | – | B (logistic regression coefficient for stroke) ([1]; full model N = 145,576): 1.018; Odds Ratio for stroke ([1]; full model N = 145,576): 2.769; times more likely to have a stroke during the year ([1]; general model): about 2.7 times; B (logistic regression coefficient for stroke) [1, 9]: 0.849; Odds Ratio for stroke [1, 9]: 2.337
13 | Cc1c(C2CCN(CCc3ccccc3)CC2)noc1-c1ccc(Cl)cc1 [L741742, 5-(4-Chlorophenyl)-4-methyl-3-(l-(2-phenylethyl)piperidin-4-yl)isoxazole] | – | – | – | 61 ± 2.7 | 61 ± 2.7 | EC50 (HT-22 cells; read-out: In vitro Protective Potency (EC50 ± SEM), Table 3): 1.2 ± 0.82 nM; EC50 (HT-22 cells; [10]): 1.2 ± 0.82 nM; EC50 (HT-22 cells; [7]): 1.2 ± 0.82 nM; Ki (human Sigma-1 receptor; [8]): 0.0048 ± 0.00041 µM
14 | CN1CCN(C2=Nc3ccccc3Oc3ccc(Cl)cc32)CC1 [Loxapine] | > 1000 | 0 | – | – | – | –
15 | O=C(CCCN1CC=C(n2c(=O)[nH]c3ccccc32)CC1)c1ccc(F)cc1 [Droperidol, 1-[1-[4-(4-fluorophenyl)-4-oxo-butyl]-3,6-dihydro-2H-pyridin-4-yl]-3H-benzoimidazol-2-one] | 5270 ± 2230 | – | do not provide potent protection | – | 100 | –
16 | Clc1ccc(N2CCN(Cc3c[nH]c4ncccc34)CC2)cc1 [L745870, 3-((4-(4-Chlorophenyl)piperazin-1-yl)-methyl)-1H-pyrrolo-2,3-b-pyridine] | – | – | – | – | – | Efficacy ± SEM (HT-22 cells): 50 ± 9.6; EC50 (HT-22 cells; read-out: In vitro Protective Potency (EC50 ± SEM)): 895 ± 736 nM; EC50 (HT-22 cells; read-out: Potency (EC50 ± SEM nM)): 895 ± 736 nM; EC50 (HT-22 cells; read-out: Potency (EC50 ± SEM)): 895 ± 736 nM
17 | OCCN1CCN(CCCN2c3ccccc3Sc3ccc(Cl)cc32)CC1 [Perphenazine] | > 1000 | 0 | – | – | – | –
18 | O=C(CCCN1CCC(O)(c2ccc(Br)cc2)CC1)c1ccc(F)cc1 [Bromperidol, 4-[4-(4-bromophenyl)-4-hydroxy-1-piperidyl]-1-(4-fluorophenyl)-butan-1-one] | 0.95 ± 0.82 | – | high potency protection | – | 67 ± 9.8 | affinity for the Sigma-1 receptor in words (human Sigma-1 receptor): high affinity; Ki (human Sigma-1 receptor; [8]): 0.0012 ± 0.00021 µM
19 | CN1CCN2c3ncccc3Cc3ccccc3C2C1 (centres unmarked) [Mirtazapine] | > 1000 | – | – | 0 | – | –
20 | CCC(Oc1ccc(Cl)cc1)C(=O)OC1CC2CCC(C1)N2C (centres unmarked) [SM-21] | – | – | no protective effect | 0 | – | EC50 (HT-22 cells; [7]): > 1000 nM; EC50 (HT-22 cells; [11]): > 1000 nM
21 | O=C(CCCN1CCC(O)(c2ccc(Cl)cc2)CC1)c1ccc(F)cc1 [Haloperidol, 4-[4-(4-chlorophenyl)-4-hydroxy-1-piperidyl]-1-(4-fluorophenyl)-butan-1-one] | – | 65 ± 2.5 | strong neuroprotection; also recorded: high potency protection | – | 65 ± 2.5 | affinity of NMDA receptors for haloperidol (NMDA receptors): > 1 µM; B (logistic regression coefficient for stroke) ([1]; full model N = 145,576): −0.464; B (logistic regression coefficient for stroke) [1, 9]: −0.926; decrease of risk of stroke ([1]; patients with CABG surgery in 1997, significant only at the 0.07 level): about 60%; antioxidant activity (prevention of lipid peroxidation) [2]: failed to prevent ferric chloride-induced peroxidation of brain lipids; reduction in infarct volume [3]: 50%
22 | CSc1ccc2c(c1)N(CCC1CCCCN1C)c1ccccc1S2 (centres unmarked) [Thioridazine] | – | 0 | – | – | – | –
23 | O=C(OCCN1CCOCC1)C1(c2ccccc2)CCCCC1 [PRE-084] | – | – | – | 0 | – | EC50 (HT-22 cells; [7]): > 1000 nM; EC50 (HT-22 cells; [11]): > 1000 nM
24 | OC(CCCN1CCC(O)(c2ccc(Cl)cc2)CC1)c1ccc(F)cc1 (centres unmarked) | – | – | high potency protection | – | 58 ± 5.6 | EC50 (HT-22 cells; [10]): 12.9 ± 12.2 nM; affinity for the Sigma-1 receptor in words (human Sigma-1 receptor): high affinity
25 | CN1CCN(CCc2ccc(Cl)c(Cl)c2)CC1 [BD1063] | – | – | – | 61 ± 7.5 | 61 ± 7.5 | Efficacy ± SEM (HT-22 cells; Table 5): 61 ± 7.5; EC50 (HT-22 cells; [10]): 5.9 ± 3.5 nM; EC50 (HT-22 cells; [7]): 5.9 ± 3.5 nM; EC50 (HT-22 cells; [11]): 5.9 ± 3.5 nM; Ki (human Sigma-1 receptor; [8]): 0.0031 ± 0.0014 µM; Ki (human Sigma-1 receptor; Table 5, own value, read-out: Affinity for the Sigma-1 receptor (Ki)): 0.0031 µM
26 | CN(C)CC/C=C1/c2ccccc2Sc2ccc(Cl)cc21 [Chlorprothixene] | > 1000 | 0 | – | – | – | –
27 | Clc1ccc2c(c1)C(N1CCNCC1)=Nc1ccccc1O2 [Amoxapine] | – | – | – | 0 | – | –
28 | O=c1[nH]c2ccccc2n1C1CCN(CCCC(c2ccc(F)cc2)c2ccc(F)cc2)CC1 [Pimozide] | > 1000 | – | – | 0 | – | EC50 (HT-22 cells; Mus musculus, HT-22, read-out: In vitro Protective Potency (EC50 ± SEM, nM)): > 1000 nM
29 | OC1(c2ccc(Cl)c(C(F)(F)F)c2)CCN(CCCC(c2ccc(F)cc2)c2ccc(F)cc2)CC1 [Penfluridol, 1-[4,4-bis(4-fluorophenyl)butyl]-4-[4-chloro-3-(trifluoromethyl)phenyl]-piperidin-4-ol] | – | – | moderate protective potency | – | 80 ± 20 | EC50 (HT-22 cells; [10]): 350 ± 246 nM; affinity for the Sigma-1 receptor in words (human Sigma-1 receptor): moderate affinity; Ki (human Sigma-1 receptor; [8]): 0.053 ± 0.015 µM
30 | Cc1nc2n(c(=O)c1CCN1CCC(c3noc4cc(F)ccc34)CC1)CCCC2 [Risperidone] | – | 0 | – | – | – | –
